Where “and” joins values, the source holds several entries; their conditions need not be identical. Equal values may be shown once. Inconclusive results and toxic doses are left out.
Test system: P388 leukemia ip, CD2F1 mice, survival T/C
Experiment: NCI In Vivo Anticancer Drug Screen. Data for tumor model P388 Leukemia (intraperitoneal) in CD2F1 (CDF1) mice
Conditions: endpoint: median survival time, higher = longer survival
How it was run: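 Mice carrying the transplanted tumor received test compound or vehicle. Survival was recorded in each group, and the value is the treated-group measurement divided by that of the vehicle-treated control group.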

[1] = dose: 100.0 mg/kg/injection, schedule: Q01DX009 (ip), vehicle: saline
[2] = dose: 200.0 mg/kg/injection, schedule: Q01DX009 (ip), vehicle: saline
[3] = dose: 25.0 mg/kg/injection, schedule: Q01DX009 (ip), vehicle: saline with Tween-80
[4] = dose: 50.0 mg/kg/injection, schedule: Q01DX009 (ip), vehicle: saline with Tween-80
[5] = dose: 60.0 mg/kg/injection, schedule: Q01DX005 (ip), vehicle: saline with Tween-80
[6] = dose: 120.0 mg/kg/injection, schedule: Q01DX005 (ip), vehicle: saline with Tween-80
[7] = dose: 240.0 mg/kg/injection, schedule: Q01DX005 (ip), vehicle: saline with Tween-80
[8] = dose: 50.0 mg/kg/injection, schedule: Q01DX005 (ip), vehicle: saline with Tween-80
[9] = dose: 100.0 mg/kg/injection, schedule: Q01DX005 (ip), vehicle: saline with Tween-80
[10] = dose: 200.0 mg/kg/injection, schedule: Q01DX005 (ip), vehicle: saline with Tween-80
[11] = dose: 100.0 mg/kg/injection, schedule: Q04DX003 (ip), vehicle: saline with Tween-80
[12] = dose: 400.0 mg/kg/injection, schedule: Q04DX003 (ip), vehicle: saline with Tween-80
[13] = dose: 25.0 mg/kg/injection, schedule: Q01DX009 (ip), vehicle: other
[14] = dose: 100.0 mg/kg/injection, schedule: Q01DX009 (ip), vehicle: saline with Tween-80
[15] = dose: 50.0 mg/kg/injection, schedule: Q01DX009 (ip), vehicle: Klucel (hydroxypropylcellulose) (HPC)
[16] = dose: 100.0 mg/kg/injection, schedule: Q01DX009 (ip), vehicle: Klucel (hydroxypropylcellulose) (HPC)
[17] = dose: 200.0 mg/kg/injection, schedule: Q01DX009 (ip), vehicle: saline with Tween-80

C[C@@]12CCCC1=[N+]1CCc3ccccc3[C@@H]1CC2=O
T/C (dose: 100.0 mg/kg/injection, schedule: Q04DX002 (ip), vehicle: Klucel (hydroxypropylcellulose) (HPC)): 101 % of control
T/C (dose: 200.0 mg/kg/injection, schedule: Q04DX002 (ip), vehicle: Klucel (hydroxypropylcellulose) (HPC)): 102 % of control

O=C1CSCc2nc3ccccc3n21
T/C (dose: 100.0 mg/kg/injection, schedule: Q01DX001 (ip), vehicle: saline): 95 % of control
T/C [1]: 103 % of control
T/C (dose: 200.0 mg/kg/injection, schedule: Q01DX001 (ip), vehicle: saline): 104 % of control
T/C [2]: 103 % of control
T/C (dose: 400.0 mg/kg/injection, schedule: Q01DX001 (ip), vehicle: saline): 104 % of control

CC(=C\C1=CC(C)(C)CCC1(C)C)/C=C(C)/C=C/C=[N+](\[O-])C1C(C2COC(C)(C)O2)OC2OC(C)(C)OC21 (configuration not stated)
T/C (dose: 12.5 mg/kg/injection, schedule: Q01DX005 (ip), vehicle: DMSO): 103 % of control
T/C (dose: 25.0 mg/kg/injection, schedule: Q01DX005 (ip), vehicle: DMSO): 119 % of control
T/C (dose: 50.0 mg/kg/injection, schedule: Q01DX005 (ip), vehicle: DMSO): 100 % of control and 113 % of control
T/C (dose: 100.0 mg/kg/injection, schedule: Q01DX005 (ip), vehicle: DMSO): 106 % of control
T/C (dose: 200.0 mg/kg/injection, schedule: Q01DX005 (ip), vehicle: DMSO): 103 % of control

Nc1cccc2cccnc12 (tested in a mixture with another compound)
T/C (dose: 6.25 mg/kg/injection, schedule: Q01DX009 (ip), vehicle: saline with Tween-80): 97 % of control
T/C (dose: 12.5 mg/kg/injection, schedule: Q01DX009 (ip), vehicle: saline with Tween-80): 103 % of control
T/C [3]: 106 % of control
T/C [4]: 104 % of control

CC(=O)c1ccc(N/N=[N+](/C)[O-])cc1
T/C [5]: 99 % of control
T/C [6]: 101 % of control
T/C [7]: 99 % of control

ClCCN1c2ccccc2Oc2cc3ccccc3cc21
T/C [8]: 101 % of control
T/C [9]: 110 % of control
T/C [10]: 100 % of control

C/C=C/c1cccc(OC)c1OC
T/C (dose: 100.0 mg/kg/injection, schedule: Q01DX001 (ip), vehicle: saline with Tween-80): 108 % of control
T/C (dose: 200.0 mg/kg/injection, schedule: Q01DX001 (ip), vehicle: saline with Tween-80): 120 % of control
T/C (dose: 400.0 mg/kg/injection, schedule: Q01DX001 (ip), vehicle: saline with Tween-80): 110 % of control

COc1cc(C2c3cc4c(cc3OC(OC(C)=O)C2C)OCO4)cc(OC)c1OC (configuration not stated)
T/C [5]: 96 % of control
T/C [6]: 94 % of control
T/C [7]: 105 % of control

N#CCC(=O)N/N=C(/CC1(O)C(=O)Nc2c(Cl)cc(Cl)cc21)c1ccccc1 (configuration not stated)
T/C [8]: 102 % of control
T/C [9]: 100 % of control
T/C [10]: 104 % of control

O=C1CN(C2CC2N2CC(=O)NC(=O)C2)CC(=O)N1 (configuration not stated)
T/C [11]: 97 % of control
T/C (dose: 200.0 mg/kg/injection, schedule: Q04DX003 (ip), vehicle: saline with Tween-80): 100 % of control
T/C [12]: 100 % of control

O=c1[nH][nH]c2c(N=Cc3ccccc3O)ccc(F)c12
T/C (dose: 50.0 mg/kg/injection, schedule: Q01DX005 (ip), vehicle: Klucel + Tween-80): 108 % of control
T/C (dose: 100.0 mg/kg/injection, schedule: Q01DX005 (ip), vehicle: Klucel + Tween-80): 102 % of control
T/C (dose: 200.0 mg/kg/injection, schedule: Q01DX005 (ip), vehicle: Klucel + Tween-80): 108 % of control

c1cc2c3c(c1)c1cc4c(cc1c[n+]3CC2)OCO4
T/C [13]: 153 % of control
T/C (dose: 25.0 mg/kg/injection, schedule: Q01DX009 (ip), vehicle: water): 91 % of control

CCCCOC(=O)c1[nH]cnc1/N=N\N(C)C
T/C [3]: 120 % of control
T/C [14]: 105 % of control
T/C [11]: 108 % of control
T/C (dose: 132.0 mg/kg/injection, schedule: Q04DX003 (ip), vehicle: saline with Tween-80): 100 % of control
T/C (dose: 300.0 mg/kg/injection, schedule: Q04DX003 (ip), vehicle: saline with Tween-80): 90 % of control
T/C [12]: 100 % of control

O=C1c2ccccc2C(=O)C2C(=O)c3ccccc3C(=O)C12 (configuration not stated)
T/C [8]: 95 % of control
T/C [9]: 95 % of control
T/C [10]: 103 % of control

COc1ccccc1N/N=c1\c2nc3ccccc3nc1n(-c1ccccc1C)c(=S)n2-c1ccc(Cl)cc1
T/C [8]: 88 % of control
T/C [9]: 94 % of control
T/C [10]: 103 % of control

COc1cc(/C=C\C(=O)c2cccc(O)c(=O)c2)cc(OC)c1OC
T/C [15]: 112 % of control
T/C [16]: 87 % of control

CCN1c2ccccc2Sc2cc(C=O)ccc21
T/C [15]: 91 % of control
T/C [16]: 107 % of control
T/C (dose: 200.0 mg/kg/injection, schedule: Q01DX009 (ip), vehicle: Klucel (hydroxypropylcellulose) (HPC)): 101 % of control

CCc1nc(N)nc(N)c1-c1ccc(NCCc2ccccc2)c(N)c1
T/C (dose: 50.0 mg/kg/injection, schedule: Q01DX005 (ip), vehicle: Klucel (hydroxypropylcellulose) (HPC)): 90 % of control
T/C (dose: 100.0 mg/kg/injection, schedule: Q01DX005 (ip), vehicle: Klucel (hydroxypropylcellulose) (HPC)): 96 % of control
T/C (dose: 200.0 mg/kg/injection, schedule: Q01DX005 (ip), vehicle: Klucel (hydroxypropylcellulose) (HPC)): 100 % of control

CC(C(=O)c1ccc(Cl)cc1)C1=NC2NN(c3ccccc3)C(=O)C2=C1C(C)C(=O)c1ccc(Cl)cc1 (configuration not stated)
T/C [5]: 99 % of control
T/C [6]: 101 % of control
T/C [7]: 100 % of control

CC1=C(C(N)=O)C(c2ccccc2)NC(=S)N1 (configuration not stated)
T/C (dose: 3.12 mg/kg/injection, schedule: Q01DX005 (ip), vehicle: Klucel (hydroxypropylcellulose) (HPC)): 101 % of control
T/C (dose: 6.25 mg/kg/injection, schedule: Q01DX005 (ip), vehicle: Klucel (hydroxypropylcellulose) (HPC)): 95 % of control
T/C (dose: 12.5 mg/kg/injection, schedule: Q01DX005 (ip), vehicle: Klucel (hydroxypropylcellulose) (HPC)): 100 % of control
T/C (dose: 25.0 mg/kg/injection, schedule: Q01DX005 (ip), vehicle: Klucel (hydroxypropylcellulose) (HPC)): 100 % of control and 101 % of control (2×)

CC1(C)OC(C2SCCS2)C2OC(=O)C(O[Si](C)(C)C(C)(C)C)C2O1 (configuration not stated)
T/C [5]: 99 % of control
T/C [6]: 93 % of control
T/C [7]: 93 % of control

CCCCCCOC(=O)c1ccccc1OP(=O)(N(C)C)N(C)C
T/C (dose: 50.0 mg/kg/injection, schedule: Q01DX005 (ip), vehicle: saline): 98 % of control
T/C (dose: 100.0 mg/kg/injection, schedule: Q01DX005 (ip), vehicle: saline): 101 % of control

CCOC(=O)C(=CN(C)c1ccc(C)cc1)C(=O)OCC
T/C [4]: 100 % of control
T/C [14]: 103 % of control
T/C [17]: 95 % of control

C/C(=N\Nc1ccc([N+](=O)[O-])cc1[N+](=O)[O-])C1CC1
T/C [3]: 117 % of control
T/C [4]: 106 % of control
T/C [14]: 108 % of control
T/C [17]: 109 % of control

CCOC(=O)CC(=O)Nc1cc2ccc(OC)c(OC)c2cc1C(=O)OCC
T/C [13]: 88 % of control
T/C (dose: 50.0 mg/kg/injection, schedule: Q01DX009 (ip), vehicle: other): 88 % of control
T/C (dose: 100.0 mg/kg/injection, schedule: Q01DX009 (ip), vehicle: other): 96 % of control
T/C (dose: 200.0 mg/kg/injection, schedule: Q01DX009 (ip), vehicle: other): 87 % of control
T/C (dose: 400.0 mg/kg/injection, schedule: Q01DX009 (ip), vehicle: other): 105 % of control

CCCCCCCNc1ncnc2[nH]ncc12
T/C [8]: 112 % of control
T/C [9]: 107 % of control
T/C [10]: 107 % of control

NCc1cc(O)c(O)c(O)c1
T/C (dose: 25.0 mg/kg/injection, schedule: Q01DX009 (ip), vehicle: saline): 100 % of control
T/C (dose: 50.0 mg/kg/injection, schedule: Q01DX009 (ip), vehicle: saline): 103 % of control and 120 % of control
T/C [1]: 110 % of control and 118 % of control and 114 % of control
T/C [2]: 116 % of control and 120 % of control and 122 % of control
T/C (dose: 400.0 mg/kg/injection, schedule: Q01DX009 (ip), vehicle: saline): 121 % of control and 123 % of control and 124 % of control
T/C (dose: 600.0 mg/kg/injection, schedule: Q01DX009 (ip), vehicle: saline): 155 % of control and 157 % of control and 150 % of control
